“Also recorded” adds a separate entry of the source.
Tested on: HeLa cells
Test: Subcellular localization of CTP-β-gal by confocal scanning microscope
Type: cell-based
Details: β-galactosidase fusion protein, 100 μg/ml, 1 hr
Excerpt: To select cytoplamic transduction peptides (CTPs) of interest, HeLa cells were transduced with CTP-β-galactosidase, and then examined under the confocal scanning microscope. Before the confocal analysis, cells were stained with mouse anti-β-galactosidase antibody and 2nd antibodies conjugated with FITC (Fluorescence-iso-thio-cyanate) or with PE (phycoerythrin) together with DNA staining reagent (green fluorescence SYTO-16 DNA staining dye, Molecular Probe). First, HeLa cells (5×10^5 cells/ml) were plated onto a 6-well plate containing sterilized cover-slips and cultured overnight at 37° C. CO2 incubator. The cells were washed with PBS (pH 7.4) and 1 ml of an OPTI-MEM I medium was added, followed by treatment with candidate CTP-fused proteins (100 μg/ml). As a positive control, PTD-β-galactosidase fusion protein was employed, and as a negative control, only β-galactosidase protein was used. Following the treatment with candidate CTP-β-galactosidase fusion proteins, cells were incubated for 1 hr at 37° C. incubator. The cells were rinsed three times with PBS and fixed with 2% paraformaldehyde for 20 min at 4° C. HeLa cells fixed were washed twice with washing buffer (PBS containing 0.2% BSA and 0.02% sodium azide). To stain the cells with antibody, cells were pre-treated with 0.5% Triton X-100 (in PBS, Sigma) at 4° C. for 20 min. Cells were washed three times with washing buffer and then stained with mouse anti-β-galactosidase antibody (diluted 1:2,000, Sigma) for 1 hr at 4° C. as a primary antibody and then washed three times with washing buffer. Cells were then incubated with FITC-conjugated goat anti-mouse IgG (diluted 1:2,000, Jackson Laboratory) as a secondary antibody for 20 min at 4° C. Washed 3 times with the same washing buffer, cells were fixed on a slide glass with fluorescence mounting medium (DAKO) and the edge of slide glass was sealed with nail vanish.
Double staining was carried out with SYTO-16 DNA staining dye as follows: First, the cells were incubated with the primary antibodies under the same conditions and rinsed three times. Then, the cells were incubated at 4° C. for 20 min with PE-conjugated goat anti-mouse IgG PE (diluted 1:2,000, Jackson Laboratory). Washed three times with washing buffer, cells were incubated with SYTO-16 DNA staining dye (diluted 1:1,000, DAKO) for 20 min at 4° C. Cells were fixed and sealed on a slide glass and then examined under a confocal laser scanning microscope.
In the present experiment, LEICA TCS NT SP confocal microscope (LEICA Lasertech GmbH, Heidelverg, Germany) was employed, which was equipped with lager generator of argon (Ar) and krypton (Kr), scanning device, and filter capable of detecting FITC (510–550 nm) and PE (600–660) at independent channel. Photographs were taken by PL-APO X100 objective. For single staining, the cells were sectioned into 4-layers and fluorescence and transmission photographs were taken. For double staining, FITC, PE, and transmission photographs were taken using optimal respective filter.

## CTP512: CTP (2G4R8R9R), sequence YGRRARRRRRR; representative CTP used from Example 5-4 on
  cytoplasmic remaining property / subcellular localization: excellent cytoplamic localization property; also recorded: excellent cytoplamic remaining property; also recorded: significantly high
Listed as CTP 512
  cytoplasmic remaining property / subcellular localization: excellent cytoplasmic remaining property

From patent US7101844B2, “Cytoplasmic transduction peptides and uses thereof” (Creagene, Inc., priority 2002, dated 2006)
